{
  "source": "patent US11059800B2",
  "about": "“Dehydroleucodine derivatives and uses thereof” (Bioventures, LLC, priority 2013, dated 2021)",
  "key": {"[1]": {"system": "TUR", "assay": "Cytotoxicity, annexin V/7-AAD viability by flow cytometry, TUR", "type": "cell-based, human", "conditions": "48 hours, drug range tested 1.25-160 μM", "description": "(§1) In order to assess the structure-activity relationship of DHL and its derivatives, DHL and its derivatives were evaluated against eight human leukemia cell lines. Cell lines were cultured in Iscove's Modified Dulbecco's Medium (IMDM) supplemented with 10%˜20% fetal bovine serum (FBS) according to culture conditions indicated by ATCC and 1% penicillin/streptomycin (Pen/Strep) at 37° C. and 5% CO2. The cells were seeded into 96-well plates and kept at a concentration of 0.5 million cells per mL. The samples were treated with DHL, Leucodine, DHL-Morpholine, DHL-Proline, DHL-Piperidine, and PTL at varying concentrations in triplicates. Cell viability was determined after incubating for 48 hours. The cells were stained with annexin V-fluorescein isothiocyanate or phycoeritrine (FITC/PE) and 7-aminoactinomycin (7-AAD) to detect phosphatidylserine exposition and cell permeability, respectively. At least 50,000 events were recorded per condition on either an LSR-II or LSR-Fortessa flow cytometer (BD Biosciences). Data analysis was conducted using FlowJo 9.6 software for Mac OS X (TreeStar). Cells that were negative for annexin V and 7-AAD were scored as viable."}, "[2]": {"system": "THP-1", "assay": "Cytotoxicity, annexin V/7-AAD viability by flow cytometry, THP-1", "type": "cell-based, human", "conditions": "THP-1, 48 hours, drug range tested 1.25-160 μM", "description": "as §1"}, "[3]": {"system": "MOLM-13", "assay": "Cytotoxicity, annexin V/7-AAD viability by flow cytometry, MOLM-13", "type": "cell-based, human", "conditions": "MOLM-13, 48 hours, drug range tested 1.25-160 μM", "description": "as §1"}, "[4]": {"system": "Kasumi-1", "assay": "Cytotoxicity, annexin V/7-AAD viability by flow cytometry, Kasumi-1", "type": "cell-based, human", "conditions": "Kasumi-1, 48 hours, drug range tested 1.25-160 μM", "description": "as §1"}, "[5]": {"system": "HL-60", "assay": "Cytotoxicity, annexin V/7-AAD viability by flow cytometry, HL-60", "type": "cell-based, human", "conditions": "HL-60, 48 hours, drug range tested 1.25-160 μM", "description": "as §1"}, "[6]": {"system": "KG-1", "assay": "Cytotoxicity, annexin V/7-AAD viability by flow cytometry, KG-1", "type": "cell-based, human", "conditions": "KG-1, 48 hours, drug range tested 1.25-160 μM", "description": "In order to assess the structure-activity relationship of DHL and its derivatives, DHL and its derivatives were evaluated against eight human leukemia cell lines. Cell lines were cultured in Iscove's Modified Dulbecco's Medium (IMDM) supplemented with 10%˜20% fetal bovine serum (FBS) according to culture conditions indicated by ATCC and 1% penicillin/streptomycin (Pen/Strep) at 37° C. and 5% CO2. […] Cell viability was determined after incubating for 48 hours."}, "[7]": {"system": "MV4-11", "assay": "Cytotoxicity, annexin V/7-AAD viability by flow cytometry, MV4-11", "type": "cell-based, human", "conditions": "MV4-11, 48 hours, drug range tested 1.25-160 μM", "description": "as §1"}, "[8]": {"system": "U-937", "assay": "Cytotoxicity, annexin V/7-AAD viability by flow cytometry, U-937", "type": "cell-based, human", "conditions": "U-937, 48 hours, drug range tested 1.25-160 μM", "description": "as §1"}, "[9]": {"system": "eight human leukemia cell lines", "experimental": "Cell lines were cultured in Iscove's Modified Dulbecco's Medium (IMDM) supplemented with 10%˜20% fetal bovine serum (FBS) according to culture conditions indicated by ATCC and 1% penicillin/streptomycin (Pen/Strep) at 37° C. and 5% CO2. The cells were seeded into 96-well plates and kept at a concentration of 0.5 million cells per mL. […] Cell viability was determined after incubating for 48 hours. The cells were stained with annexin V-fluorescein isothiocyanate or phycoeritrine (FITC/PE) and 7-aminoactinomycin (7-AAD) to detect phosphatidylserine exposition and cell permeability, respectively. At least 50,000 events were recorded per condition on either an LSR-II or LSR-Fortessa flow cytometer (BD Biosciences). Data analysis was conducted using FlowJo 9.6 software for Mac OS X (TreeStar). Cells that were negative for annexin V and 7-AAD were scored as viable."}, "[10]": {"system": "HMOX1 (Heme oxygenase 1)", "assay": "Quantitative PCR of HMOX1 in MOLM-13 or MV-411 cells", "type": "cell-based", "conditions": "20 μM, 6 hours, MOLM-13 and MV-411 cells", "description": "(§2) (FIG. 8A) Graphical representation of the fold changes of HMOX-1 in MOLM-13 cells. Cells were seeded at 0.5 million cells per milliliter and subject to 20 μM of DHL, leucodine, DHL-proline, DHL-piperidine, DHL-morpholine, or parthenolide for 6 hours. RNA was then extracted and quantitative PCR was performed. Experiments were performed in triplicates. Lines represent mean for each specimen, with error bars representing the SD. Fold change was calculated by the delta-delta Ct method. […] (FIG. 8D) Immunoblot for MOLM-13 cells after 6 hours of treatment with either DHL or PTL with 10 or 20 μM. Blot was probed for phospho-p65 and p65 antibodies. Total p65 is shown as the loading control.\n(§3) (FIG. 9A) Graphical representation of the fold changes of HMOX-1 in MV-411 cells. Cells were seeded at 0.5 million cells per milliliter and subject to 20 μM of DHL, leucodine, DHL-proline, DHL-piperidine, DHL-morpholine, or parthenolide for 6 hours. RNA was then extracted and quantitative PCR was performed. Experiments were performed in triplicates. Lines represent mean for each specimen, with error bars representing the SD. Fold change was calculated by the delta-delta Ct method. (FIG. 9B) Graphical representation of the fold changes of HSPA1A in MV-411 cells, with the same experimental setup and analysis as FIG. […].\n(§4) To compare these intracellular effects of DHL and its derivatives, quantitative PCR was performed (FIG. 8 and FIG. 9). MOLM-13 or MV-411 cells were seeded at 0.5 million cells per milliliter. Cells were treated for 6 hours with 20 μM of DHL, Leucodine, DHL-Morpholine, DHL-Proline, DHL-Piperidine or PTL, and then collected. Total RNA was extracted using the Qiashredder and Qiagen Rneasy Mini kits. […] Quantitative PCR was performed using probes for HMOX-1 (Hs01110251_m1), HSPA1A (Hs00359163_s1), and NFKB1 (Hs00765730_m1). […] Single-plex real-time PCR was performed in triplicates in a StepOne plus RealTime PCR system and analyzed with the StepOne Software. Fold change was calculated using the 2-DDCT method described by Livak and Schmittgen."}, "[11]": {"system": "HSPA1A", "assay": "Quantitative PCR of HSPA1A in MOLM-13 or MV-411 cells", "type": "cell-based", "conditions": "20 μM, 6 hours, MOLM-13 and MV-411 cells", "description": "as §2, §3, §4"}, "[12]": {"system": "NF-κB", "assay": "Quantitative PCR of NF-κB transcript in MOLM-13 and MV-411 cells", "type": "cell-based", "conditions": "20 μM, 6 hours", "description": "as §2\nas §4, with “collected.” for “collected. Total RNA was extracted using the Qiashredder and Qiagen Rneasy Mini kits.”"}},
  "data": [
    {"smiles": "CC1=CC(=O)C2=C(C)CCC3C(CN4CCOCC4)C(=O)OC3C12", "note": "(stereo not drawn) [DHL-Morpholine]", "values": [
      {"measurement": "LD50", "setting": "[1]", "value": ">160", "unit": "µM"},
      {"measurement": "LD50", "setting": "[2]", "value": 54.4, "unit": "µM"},
      {"measurement": "LD50", "setting": "[3]", "value": ">160", "unit": "µM"},
      {"measurement": "LD50", "setting": "[4]", "value": ">160", "unit": "µM"},
      {"measurement": "LD50", "setting": "[5]", "value": 166, "unit": "µM"},
      {"measurement": "LD50", "setting": "[6]", "value": 129, "unit": "µM"},
      {"measurement": "LD50", "setting": "[7]", "value": 21.1, "unit": "µM"},
      {"measurement": "LD50", "setting": "[8]", "value": 74.7, "unit": "µM"}
    ]},
    {"smiles": "CC1=CC(=O)C2=C(C)CCC3C(CN4CCCCC4)C(=O)OC3C12", "note": "(stereo not drawn) [DHL-Piperidine]", "values": [
      {"measurement": "LD50", "setting": "[1]", "value": ">160", "unit": "µM"},
      {"measurement": "LD50", "setting": "[2]", "value": 59.3, "unit": "µM"},
      {"measurement": "LD50", "setting": "[3]", "value": 52.3, "unit": "µM"},
      {"measurement": "LD50", "setting": "[4]", "value": ">160", "unit": "µM"},
      {"measurement": "LD50", "setting": "[5]", "value": 96.5, "unit": "µM"},
      {"measurement": "LD50", "setting": "[6]", "value": 182, "unit": "µM"},
      {"measurement": "LD50", "setting": "[7]", "value": 66.9, "unit": "µM"},
      {"measurement": "LD50", "setting": "[8]", "value": ">160", "unit": "µM"}
    ]},
    {"smiles": "CC1=CC(=O)C2=C(C)CCC3C(CN4CCCC4C(=O)O)C(=O)OC3C12", "note": "(stereo not drawn) [DHL-Proline]", "values": [
      {"measurement": "LD50", "setting": "[1]", "value": 35.9, "unit": "µM"},
      {"measurement": "LD50", "setting": "[2]", "value": 26.7, "unit": "µM"},
      {"measurement": "LD50", "setting": "[3]", "value": 20.6, "unit": "µM"},
      {"measurement": "anti-leukemic activity / in vitro cytotoxicity", "setting": "[9]", "value": "most potent derivative"},
      {"measurement": "HMOX1 expression, fold change", "setting": "[10]", "value": "upregulated HMOX1 and HSPA1A the most"},
      {"measurement": "LD50", "setting": "[4]", "value": 28.1, "unit": "µM"},
      {"measurement": "LD50", "setting": "[5]", "value": 50.2, "unit": "µM"},
      {"measurement": "LD50", "setting": "[6]", "value": 97.7, "unit": "µM"},
      {"measurement": "HSPA1A expression, fold change", "setting": "[11]", "value": "upregulated HMOX1 and HSPA1A the most"},
      {"measurement": "LD50", "setting": "[7]", "value": 23.3, "unit": "µM"},
      {"measurement": "LD50", "setting": "[8]", "value": 33.0, "unit": "µM"}
    ]},
    {"smiles": "CC1=CC(=O)C2=C(C)CC[C@@H]3[C@H](OC(=O)[C@H]3C)[C@@H]12", "note": "[Leucodine, leucodine]", "values": [
      {"measurement": "NF-κB transcript levels", "setting": "[12]", "value": "slightly downregulated"},
      {"measurement": "LD50", "setting": "[1]", "value": 105, "unit": "µM"},
      {"measurement": "LD50", "setting": "[2]", "value": 121, "unit": "µM"},
      {"measurement": "LD50", "setting": "[3]", "value": ">160", "unit": "µM"},
      {"measurement": "anti-leukemic activity / in vitro cytotoxicity", "setting": "[9]", "value": "not found to be active"},
      {"measurement": "HMOX1 expression, fold change", "setting": "[10]", "value": "upregulated"},
      {"measurement": "LD50", "setting": "[4]", "value": ">160", "unit": "µM"},
      {"measurement": "LD50", "setting": "[5]", "value": ">160", "unit": "µM"},
      {"measurement": "LD50", "setting": "[6]", "value": ">160", "unit": "µM"},
      {"measurement": "HSPA1A expression, fold change", "setting": "[11]", "value": "upregulated"},
      {"measurement": "LD50", "setting": "[7]", "value": ">160", "unit": "µM"},
      {"measurement": "LD50", "setting": "[8]", "value": ">160", "unit": "µM"}
    ]}
  ]
}
